Results reported in patent US11167037B2, “Antibody drug conjugate platform using bispecific antibody” (SEOUL NATIONAL UNIVERSITY R&DB FOUNDATION, priority 2016, dated 2021).
Residues, ends and D or L forms follow the SMILES beside them. Groups on a side chain read outwards from the residue. *: point of attachment. Biotin = O=C1N[C@H]2[C@H](CS[C@H]2CCCCC(=O)*)N1; X1 = CN1C(=O)C[C@H](C(=O)*)[C@H]1c1cccnc1; PEG6 = NCCOCCOCCOCCOCCOCCOCCC(=O)O

Tests used:
[1] = mouse, in vivo
Protocol: Blood samples were collected from intra-orbital vein at 0, 1, 24, 48, 72, 96 and 168 hrs post-injection. The samples were left at the room temperature for 2 hrs until the blood coagulated. Subsequently, serum was acquired by centrifuging at 3500 rpm for 15 min at 4° C.
After washing with 0.05% PBST, HRP-conjugated streptavidin (Thermo Fisher Scientific Pierce) was added and cultured for 1 hr at 37° C. After washing, TMB was added to each well and the absorbance was measured at 650 nm.

[2] = system: EGFR on the A549 cell surface; assay: Flow cytometry on A549 cells; format: cell-based, human
Protocol: A549 cells were seeded in a v-bottom 96-well plate (Corning) in the final concentration of 4×10^5 cells per each sample. […] After washing with the flow cytometry buffer, the cells were cultured with phycoerythrin (PE)-conjugated streptavidin (BD Biosciences Pharminogen, San Diego, Calif., USA) and FITC-conjugated anti-human IgG (Fc specific) antibody (Thermo Fisher Scientific Pierce) in the dark for 1 hr at 37° C. After additional washing with the same buffer, the cells were resuspended in 200 μL PBS, and analyzed through flow cytometry using FACS Canto II instrument equipped with a 488-nm laser (BD Bioscience, San Jose, Calif., USA). 10,000 cells per measurement were detected and data were analyzed with FlowJo software (TreeStar, Ashland, Oreg., USA).

A549 cells = assay: Cell viability assay (Cell Titer-Glo, 72 hrs); format: cell-based, human; conditions: ATP content
Protocol: A549 cells were seeded in 50 μL RPMI-1640 medium in black-walled 96-well plates (4,000 cells per well) and allowed to adhere overnight at 37° C. in 5% CO2 and humidified atmosphere. […] The cotinine-duocarmycin and antibody dilutes in 50 μL medium were added to each well, and cultured for 72 hrs. After adding Cell Titer-Glo reagent (Promega Corp.) to each well, luminescence signals were measured using a microplate luminometer (PerkinElmer, Waltham, Mass., USA) according to the manufacturer's instructions. All experiments were conducted in triplicate. The relative cell viability was calculated by dividing by the control luminescence signal [% viability=(Test−Background)/(Control−Background)×100].

A549 xenograft tumor = A549 xenograft tumor growth; format: in vivo, Balb/c-nude mice; conditions: intraperitoneally for five weeks, n=4/group
Protocol: Six-week-old female Balb/c-nude mice were subcutaneously injected with the A549 (1×10^7 cells) on the left and right flank of each mouse. When the tumor volume reached approximate 150 mm^3, all animals were randomly divided into three groups (n=4/group) and treated for five weeks. […] Then, three times dose of the drugs were injected thrice a week for the following three weeks. Palivizumab was used as an isotype control of the bispecific antibody. DMSO was used as a vehicle control of cotinine-duocarmycin. The tumor volume was measured using digital calipers twice a week in 32 days after injection. Tumor volume was calculated as length×(width)^2×0.5, where the length is the longest axis and the width is the distance perpendicular to the length. Systemic toxicity was evaluated by measuring body weight twice a week. Mice were sacrificed on the day 35 after injection and tumors were dissected and weighted.
To evaluate the in vivo efficacy of ERC6-complexed cotinine-duocarmycin, cetuximab-refractory A549 cells were grafted to mice (n=4/group). […] Drugs were administered to the mice twice a week for two weeks, and then thrice a week for three weeks.

Row | Compound | half-life [1] | binding activity of cotinine-biotin to A549 cell (streptavidin-PE signal) ([2]; ERC6 present) | binding activity of cotinine-biotin to A549 cell (streptavidin-PE signal) ([2]; mixture with anti-cotinine IgG) | binding activity of cotinine-biotin to A549 cell (streptavidin-PE signal) ([2]; mixture with cetuximab) | cytotoxic / anti-proliferative effect (relative cell viability) (A549 cells) | inhibition of tumor growth (A549 xenograft tumor)
1 | CN1C(=O)C[C@H](C(=O)NCCCC[C@H](NC(=O)[C@H](CO)NC(=O)CNC(=O)CNC(=O)CNC(=O)CNC(=O)[C@H](CCCCNC(=O)CCOCCOCCOCCOCCOCCOCCNC(=O)CCCC[C@@H]2SC[C@@H]3NC(=O)N[C@@H]32)NC(=O)[C@H](CO)NC(=O)CNC(=O)CNC(=O)CNC(=O)CNC(=O)[C@H]2CC(=O)N(C)[C@@H]2c2cccnc2)C(=O)O)[C@H]1c1cccnc1 [cotinine-biotin, cotinine-GGGGSK[(dPEG6)-biotin]GGGGSK-cotinine] (X1-GGGGSK([PEG6-Biotin])GGGGSK(X1)-OH) | 33.4 min | showed the binding activity to the A549 cell | did not produce any significant signal | did not produce any significant signal | – | –
2 | cotinine-[GSK(duocarmycin)]4K-cotinine [cotinine-duocarmycin] | – | – | – | – | potent anti-proliferative effect | could not be selectively delivered to the tumor site and inhibit the tumor growth
3 | COC(=O)c1cc2c([nH]1)C(=O)C=C1N(C(=O)c3cc4cc(OC)c(OC)c(OC)c4[nH]3)C[C@H]3C[C@]123 [free duocarmycin, duocarmycin, reference compound] | – | – | – | – | stronger anti-tumor effect than the cotinine-duocarmycin | –
